Measured values as given in patent US6767705B2, “Reagents and methods for identifying and modulating expression of genes regulated by retinoids” (The Board of Trustees of the University of Illinois, priority 2000, dated 2004).

Legend:
p21 = details: retinoic acid-induced growth inhibition in MCF-7 cells; cited from earlier work
MCF-7 cells [1] = test: cDNA microarray hybridization (Human UniGEM V) of RA-treated vs untreated MCF-7 cells; format: cell-based; details: 100 nM RA, 5 days
Protocol: To study gene expression changes, poly(A)+ RNA was isolated from untreated MCF-7 cells and from cells treated for 5 days with 100 nM RA. cDNA was prepared from these RNA populations and the cDNA hybridized with a cDNA microarray (Human UniGEM V cDNA microarray, Incyte Genomics, St. Louis, Mo.) that contains >7,000 cDNAs of different human genes and ESTs. cDNA probe synthesis, hybridization with the microarray and signal analyses were conducted by IncyteGenomics as a commercial service.

MCF-7 cells [2] = test: Immunocytochemical and immunoblotting analysis of IGFBP-3, HIF2α/EPAS-1 and EPLIN proteins in MCF-7 cells; format: cell-based, human; details: 100 nM RA for 5 days, MCF-7 cells (FIG. 3A, 3B)
Protocol: FIG. 3A is a photomicrograph and FIG. 3B is a photograph of an immunoblot showing induction of IGFBP-3, HIF2α/EPAS-1 and EPLIN proteins in RA-treated cells.
Induction of three genes in this group was tested and confirmed at the protein level, by immunocytochemical assays, shown in FIG. 3A, using rabbit polyclonal antibody against EPLIN (a gift of Dr. David Chang, UCLA), and goat polyclonal antibodies against IGFBP-3 and EPAS-1/HIF-2α (Santa Cruz Biotechnology, Inc., Santa Cruz, Calif.) and standard techniques. Antibody staining was detected using Vectastain kit (Vector Labs, Burlingame, Calif.) according to the manufacturer's instructions.
The EPLIN gene encodes two protein isoforms. EPLINα and EPLINβ, with the larger (β) isoform showing a stronger growth-inhibitory effect. The observed induction of EPLIN gene expression was confirmed by immunocytochemical and immunoblotting assays (results shown in FIGS. 3A and 3B). These assays were performed using rabbit polyclonal antibody against EPLIN (a gift of Dr. David Chang, UCLA) and were carried out by standard techniques. Antibody staining was detected using Vectastain kit (Vector Labs) for immunocytochemistry and horseradish peroxidase-conjugated goat anti-rabbit IgG (Santa Cruz) for immunobloting.

MCF-7 cells [3] = test: Clonogenic assay (colony formation / plating efficiency) of MCF-7 cells after RA treatment; format: cell-based, human
Protocol: FIGS. 1A and 1B are graphs showing the effects of retinoic acid (RA) on colony formation by MCF-7 cells. In each assay, 1.5×10^5 cells were plated per P100, in the absence or in the presence of RA. For clonogenic assays, cells were trypsinized after treatment, and 2,500 cells were plated per P100 and grown in drug-free media. […] Each point represents the mean and standard deviation for triplicate assays.
Clonogenic assays were performed to analyze the differences in proliferative capacity in MCF-7 cells after treatment with 100 nM RA for varying times. Cells were exposed to 100 nM RA for 1-7 days and tested for their capacity to form colonies after treatment at each time point. […] The decrease was initially rapid (from 100% to 40% plating efficiency after 2 days incubation with RA) and decreased more slowly to a final plating efficiency of about 10% at day 7.

MCF-7 cells [4] = test: RT-PCR analysis of expression of retinoid-inducible genes in MCF-7 cells; format: cell-based, human
Protocol: FIGS. 2A through 2C show the results of RT-PCR analysis of changes in the expression of retinoid-inducible genes as described in Example 1. The identity of each gene is followed by the NCBI Accession Number (in parentheses). […] The designations “R5” and “R8” correspond to days 5 and 8 after release from 5-day RA treatment, respectively.
RT-PCR analysis was carried out essentially as described (Noonan et al., 1990, Proc. Natl. Acad. Sci. USA 87: 7160-7164), using β-actin as an internal normalization standard.

[5] = tested on: MCF-7 human breast carcinoma cells; details: cited from earlier work
[6] = tested on: xenografts of MCF-10T neo mammary epithelial cells; details: xenografts in vivo after treatment with fenretinide; cited from earlier work
[7] = 100 nM RA, MCF-7 cells (FIG. 2A)

SMILES	induction of p21 (p21)	decrease in balanced differential expression, 20 genes (MCF-7 cells [1])	increase in balanced differential expression, 27 genes (MCF-7 cells [1])	maximum decrease in relative hybridization intensity of any gene in the microarray (MCF-7 cells [1])	maximum increase in relative hybridization intensity of any gene in the microarray (MCF-7 cells [1])	expression of IGFBP-3, EPAS-1/HIF2α and EPLIN proteins (MCF-7 cells [2])	plating efficiency, normalized to untreated control (MCF-7 cells [3]; 100 nM RA, after 2 days incubation, MCF-7 cells (FIG. 1A))	final plating efficiency, normalized to untreated control (MCF-7 cells [3]; 100 nM RA, day 7, MCF-7 cells (FIG. 1A))	plating efficiency at varying concentrations of RA (MCF-7 cells [3]; 40 hr treatment, indicated doses, lowest 10 nM, MCF-7 cells (FIG. 1B))	time course of changes in RNA levels of the 13 genes (MCF-7 cells [4]; [7])	time to maximum expression of RNF (MCF-7 cells [4]; [7])	RA dose-dependence of gene expression of the 13 genes (MCF-7 cells [4]; 40 hr treatment, lowest dose 10 nM, MCF-7 cells (FIG. 2B))	induction of 13 upregulated genes by RT-PCR (MCF-7 cells [4]; RA-treated MCF-7 cells, printed as '5-10 fold or more' (FIGS. 2A, 2B))	continuous exposure required for the growth arrest effect to become apparent ([5]; low dose RA (between 10-100 nM), MCF-7 cells)	growth arrest and cell death in MCF-7 cells ([5]; relatively low doses of RA (between 10-100 nM))	induction of senescence-associated marker SA-β-gal [6]	induction of the 13 genes (MCF-7 cells [4]; 1 μM fenretinide, MCF-7 cells (FIG. 2C))
CC1=C(/C=C/C(C)=C/C=C/C(C)=C/C(=O)O)C(C)(C)CCC1 [RA, all-trans retinoic acid]	does not induce p21	1.7-3.0 fold	1.4-2.5 fold	≤ 3 fold	≤ 2.5 fold	increased expression of the corresponding proteins	40%	about 10%	dose-dependent reduction in plating efficiency at all tested doses (as low as 10 nM)	many of them increased their expression between days 1 and 4 of RA treatment	maximum expression after just one day of treatment	almost all of these genes were induced even by the lowest (10 nM) dose	5-10 fold	4 to 6 days	induce irreversible growth arrest in MCF-7 cells, while producing only a minor reduction in cell numbers caused by cell death		
CC1=C(/C=C/C(C)=C/C=C/C(C)=C/C(=O)Nc2ccc(O)cc2)C(C)(C)CCC1 [fenretinide, 4-hydroxyphenylretinamide]																Induction of SA-β-gal was also observed	All 13 genes were also induced
